# Data as given in US9265784B2, “Antineoplastic combinations of 4-anilino-3-cyanoquinolines and capecitabine” (WYETH LLC, priority 2008, dated 2016).
# Read-outs that look alike come from different tables or passages of the source.
# How the values were obtained:
# Assay type in all cases: in vivo, human
# [1] = Ongoing phase 2 study of neratinib 240 mg daily oral, adverse events
# Method: (§1) In an ongoing phase 2 study, neratinib is being administered as daily oral doses of 240 mg in subjects with erbB-2-overexpressing advanced or metastatic breast cancer, who received up to 4 prior cytotoxic chemotherapy treatment regimens, with prior trastuzumab therapy for metastatic or locally advanced disease (≧6 weeks) or with no prior exposure to erbB-2-targeted treatment. Preliminary results were obtained for 124 subjects evaluable for efficacy based on independent assessment and 131 subjects evaluable per investigator assessment. […] Median Progression Free Survival (PFS) for independent (and investigator) assessment was 23 (22), with a 16-week PFS rate of 61% (57%) in subjects who had received prior trastuzumab. For trastuzumab naïve subjects, PFS per independent (and investigator) assessment was 40 (35), with a 16-week PFS rate of 75% (78%).
# The predominant AE was diarrhea, which was reversible and generally manageable by medication, temporary discontinuation of treatment, or dose reduction. Diarrhea that was considered related to neratinib occurred with a frequency of 94% of the subjects. Of those, grade 3-4 diarrhea was experienced by 25% of the subjects. Other common AEs were nausea (related to neratinib in 30%, grade 3-4 in 2% of the subjects), vomiting (related in 23%, grade 3-4 in 2%), fatigue (related in 20%, grade 3-4 in <2%), and anorexia (related in 16%, grade 3-4 in 4%). […] Presented at the Poster presented at the SABCS, San Antonio, USA].
# [2] = system: erbB-2-overexpressing advanced or metastatic breast cancer; test: Ongoing phase 2 study of neratinib 240 mg daily oral, efficacy
# Method: as §1
# [3] = Preliminary pharmacokinetic analyses of neratinib after oral administration; conditions: for AUC / Cmax: oral daily; for AUC: read-out: Mean steady-state AUC; for Cmax: read-out: Mean steady-state Cmax
# Description: The mean accumulation ratio was 1.2 after a 240-mg dose, indicating no significant accumulation of neratinib after repeated daily dose administration at the dose to be used in this proposed trial.
# The data indicated a slow distribution of neratinib with a large apparent volume of distribution (Vz/F on day 1: about 3188 to 6181 L) after oral absorption. […] There was moderate to large variability in neratinib t1/2, Cmax, and AUC; coefficients of variation (CVs) generally ranged from 8% to 90%.
# [4] = prior trastuzumab, independent assessment
# [5] = prior trastuzumab, investigator assessment
# [6] = trastuzumab naïve subjects, independent assessment
# [7] = trastuzumab naïve subjects, investigator assessment
# [8] = human, in vivo, 400 mg (highest dose)
# [9] = human, in vivo, 180-mg dose group
# [10] = human, in vivo, 240-mg dose group
# [11] = human, in vivo, 320-mg dose group
compound,measurement,setting,value
"CCOc1cc2ncc(C#N)c(Nc3ccc(OCc4ccccn4)c(Cl)c3)c2cc1NC(=O)/C=C/CN(C)C [neratinib, (2E)-N-[4-[[3-chloro-4-[(pyridin-2-yl)methoxy]phenyl]amino]-3-cyano-7-ethoxyquinolin-6-yl]-4-(dimethylamino)but-2-enamide]","Diarrhea considered related to neratinib, frequency of subjects",[1]; 240 mg daily oral,94%
same,"anorexia grade 3-4, subjects",[1]; 240 mg daily oral,4%
same,"anorexia related, subjects",[1]; 240 mg daily oral,16%
same,"fatigue grade 3-4, subjects",[1]; 240 mg daily oral,< 2%
same,"fatigue related, subjects",[1]; 240 mg daily oral,20%
same,"grade 3-4 diarrhea, subjects",[1]; 240 mg daily oral,25%
same,"nausea grade 3-4, subjects",[1]; 240 mg daily oral,2%
same,"nausea related to neratinib, subjects",[1]; 240 mg daily oral,30%
same,"vomiting grade 3-4, subjects",[1]; 240 mg daily oral,2%
same,"vomiting related, subjects",[1]; 240 mg daily oral,23%
same,tolerability,[1]; daily oral doses of 240 mg,generally well tolerated
same,16-week PFS rate,[2]; [4],61%
same,Median Progression Free Survival (PFS),[2]; [4],23
same,16-week PFS rate,[2]; [5],57%
same,Median Progression Free Survival (PFS),[2]; [5],22
same,antitumor activity,"[2]; subjects with erbB-2-positive advanced breast cancer, 240 mg daily oral",significant antitumor activity
same,ORR,"[2]; subjects with prior trastuzumab containing therapy in the metastatic setting, independently assessed, 240 mg daily oral",26%
same,ORR,"[2]; subjects with prior trastuzumab containing therapy in the metastatic setting, investigator assessed, 240 mg daily oral",35%
same,16-week PFS rate,[2]; [6],75%
same,PFS,[2]; [6],40
same,ORR,"[2]; trastuzumab naïve subjects, independently assessed, 240 mg daily oral",51%
same,ORR,"[2]; trastuzumab naïve subjects, investigator assessed, 240 mg daily oral",62%
same,16-week PFS rate,[2]; [7],78%
same,PFS,[2]; [7],35
same,mean accumulation ratio,"[3]; after a 240-mg dose, repeated daily administration",1.2
same,dose dependence of Cmax and AUC,[3]; after oral administration,increased in a dose-dependent manner
same,AUC,[3]; [8],1700 ng·h/mL
same,Cmax,[3]; [8],105 ng/mL
same,AUC,[3]; [9],975 ng·h/mL
same,Cmax,[3]; [9],70.1 ng/mL
same,AUC,[3]; [10],939 ng·h/mL
same,Cmax,[3]; [10],73.5 ng/mL
same,AUC,[3]; [11],1330 ng·h/mL
same,Cmax,[3]; [11],90.4 ng/mL
same,Vd/F,"[3]; human, in vivo, day 1, after oral absorption, read-out: apparent volume of distribution (Vz/F)",3190 to 6180 L
same,half-life,"[3]; human, in vivo, oral administration, day 1, read-out: mean apparent terminal half-life (t1/2)",13 to 17 h
same,absorption,[3]; oral,relatively slow
